# What was measured:
# [1] = target: Neuronal acetylcholine receptor; alpha2/beta2 (Rattus norvegicus, UniProt P12389+P12390); assay: Binding affinity towards rat nicotinic acetylcholine receptor alpha2-beta2 expressed in HEK293 cells using [3H]EB as radioligand; assay type: cell-based
# [2] = target: Neuronal acetylcholine receptor; assay: Binding affinity towards rat forebrain nicotinic acetylcholine receptor using [3H]EB as radioligand
# [3] = target: Neuronal acetylcholine receptor; alpha4/beta4 (Rattus norvegicus, UniProt P09483+P12392); assay: Binding affinity towards rat Nicotinic acetylcholine receptor alpha4-beta4 expressed in HEK293 cells using [3H]EB as radioligand; assay type: cell-based
# [4] = target: Neuronal acetylcholine receptor; alpha3/beta2 (Rattus norvegicus, UniProt P04757+P12390); assay: Binding affinity towards rat Nicotinic acetylcholine receptor alpha3-beta2 expressed in HEK293 cells using [3H]EB as radioligand; assay type: cell-based
# [5] = target: Neuronal acetylcholine receptor; alpha3/beta4 (Rattus norvegicus, UniProt P04757+P12392); assay: Binding affinity towards rat Nicotinic acetylcholine receptor alpha3-beta4 expressed in HEK293 cells using [3H]EB as radioligand; assay type: cell-based
# [6] = target: Neuronal acetylcholine receptor; alpha4/beta2 (Rattus norvegicus, UniProt P09483+P12390); assay: Binding affinity towards rat Nicotinic acetylcholine receptor alpha4-beta2 expressed in HEK293 cells using [3H]EB as radioligand; assay type: cell-based
# [7] = Ratio between the binding affinities towards rat alpha2-beta4 and alpha2-beta2 nACh receptor using [3H]-EB as radioligand
# [8] = Ratio between the binding affinities towards rat alpha3-beta4 and forebrain nACh receptor using [3H]EB as radioligand
# [9] = Ratio between the binding affinities towards rat alpha4-beta4 and alpha4-beta2 nACh receptor using [3H]EB as radioligand
# [10] = Binding affinity towards rat alpha2-beta4 nACh receptor expressed in HEK293 cells using [3H]EB as radioligand; assay type: cell-based
# [11] = Ratio between the binding affinities towards rat alpha3-beta4 and alpha3-beta2 nACh receptor using [3H]EB as radioligand
# Chain of Neuronal acetylcholine receptor; alpha4/beta2 (P09483 whole entry): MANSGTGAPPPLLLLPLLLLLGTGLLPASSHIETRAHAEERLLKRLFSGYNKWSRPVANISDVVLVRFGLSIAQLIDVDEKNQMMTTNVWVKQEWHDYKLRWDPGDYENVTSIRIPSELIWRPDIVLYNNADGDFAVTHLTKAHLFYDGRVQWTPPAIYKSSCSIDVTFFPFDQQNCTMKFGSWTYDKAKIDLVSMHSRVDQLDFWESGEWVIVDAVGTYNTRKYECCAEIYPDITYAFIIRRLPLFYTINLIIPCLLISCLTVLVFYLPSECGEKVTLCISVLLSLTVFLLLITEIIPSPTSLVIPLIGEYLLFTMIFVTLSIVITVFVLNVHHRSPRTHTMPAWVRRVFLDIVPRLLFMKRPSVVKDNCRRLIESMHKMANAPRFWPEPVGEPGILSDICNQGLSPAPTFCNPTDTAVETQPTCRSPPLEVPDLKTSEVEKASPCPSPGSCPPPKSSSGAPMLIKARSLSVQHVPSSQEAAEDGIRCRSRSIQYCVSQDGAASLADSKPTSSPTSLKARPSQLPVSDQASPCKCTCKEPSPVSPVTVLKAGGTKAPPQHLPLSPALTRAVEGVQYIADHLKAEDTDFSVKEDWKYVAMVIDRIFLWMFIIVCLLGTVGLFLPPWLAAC
# Chain of Neuronal acetylcholine receptor; alpha4/beta2 (P12390 whole entry): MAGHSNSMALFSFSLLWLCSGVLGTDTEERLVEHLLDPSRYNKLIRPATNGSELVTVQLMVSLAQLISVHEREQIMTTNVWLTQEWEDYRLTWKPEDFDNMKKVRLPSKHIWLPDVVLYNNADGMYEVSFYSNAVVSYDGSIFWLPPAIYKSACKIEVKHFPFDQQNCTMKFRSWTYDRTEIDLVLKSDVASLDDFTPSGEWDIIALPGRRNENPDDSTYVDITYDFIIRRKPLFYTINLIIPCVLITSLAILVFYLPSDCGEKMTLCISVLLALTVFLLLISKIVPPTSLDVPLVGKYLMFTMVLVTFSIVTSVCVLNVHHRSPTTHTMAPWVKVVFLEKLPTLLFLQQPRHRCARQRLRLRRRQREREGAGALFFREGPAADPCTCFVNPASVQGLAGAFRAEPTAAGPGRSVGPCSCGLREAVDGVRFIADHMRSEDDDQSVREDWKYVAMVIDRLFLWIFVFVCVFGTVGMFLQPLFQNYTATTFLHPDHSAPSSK
# Chain of Neuronal acetylcholine receptor; alpha4/beta4 (P09483 whole entry): as the sequence (P09483 whole entry) above
# Chain of Neuronal acetylcholine receptor; alpha4/beta4 (P12392 whole entry): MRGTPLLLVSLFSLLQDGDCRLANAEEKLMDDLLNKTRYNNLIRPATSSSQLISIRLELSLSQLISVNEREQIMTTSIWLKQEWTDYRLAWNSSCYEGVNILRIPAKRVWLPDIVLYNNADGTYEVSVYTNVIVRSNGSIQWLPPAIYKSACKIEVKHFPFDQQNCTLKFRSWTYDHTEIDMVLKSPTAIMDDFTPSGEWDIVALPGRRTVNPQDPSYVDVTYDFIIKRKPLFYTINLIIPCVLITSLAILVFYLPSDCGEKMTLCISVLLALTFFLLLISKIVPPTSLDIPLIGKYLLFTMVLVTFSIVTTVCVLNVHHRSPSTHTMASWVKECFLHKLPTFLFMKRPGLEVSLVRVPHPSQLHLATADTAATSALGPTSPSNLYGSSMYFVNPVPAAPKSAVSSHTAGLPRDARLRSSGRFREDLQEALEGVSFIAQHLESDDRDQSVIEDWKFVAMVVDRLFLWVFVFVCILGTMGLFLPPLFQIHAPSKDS
# Chain of Neuronal acetylcholine receptor; alpha2/beta2 (P12389 whole entry): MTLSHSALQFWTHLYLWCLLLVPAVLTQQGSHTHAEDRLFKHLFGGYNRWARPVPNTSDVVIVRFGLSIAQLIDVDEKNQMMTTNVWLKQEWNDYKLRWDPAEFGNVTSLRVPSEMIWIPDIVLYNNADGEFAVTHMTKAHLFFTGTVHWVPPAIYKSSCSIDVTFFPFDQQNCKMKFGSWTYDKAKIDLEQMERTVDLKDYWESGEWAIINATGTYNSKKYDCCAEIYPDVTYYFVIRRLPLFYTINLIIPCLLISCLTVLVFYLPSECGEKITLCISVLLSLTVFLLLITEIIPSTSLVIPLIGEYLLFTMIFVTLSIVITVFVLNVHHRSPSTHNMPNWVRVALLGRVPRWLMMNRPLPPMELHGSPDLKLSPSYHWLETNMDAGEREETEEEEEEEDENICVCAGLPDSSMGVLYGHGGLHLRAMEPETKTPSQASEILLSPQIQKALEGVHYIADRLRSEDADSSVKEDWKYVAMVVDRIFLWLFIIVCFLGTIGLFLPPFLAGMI
# Chain of Neuronal acetylcholine receptor; alpha2/beta2 (P12390 whole entry): as the sequence (P12390 whole entry) above
# Chain of Neuronal acetylcholine receptor; alpha3/beta2 (P04757 whole entry): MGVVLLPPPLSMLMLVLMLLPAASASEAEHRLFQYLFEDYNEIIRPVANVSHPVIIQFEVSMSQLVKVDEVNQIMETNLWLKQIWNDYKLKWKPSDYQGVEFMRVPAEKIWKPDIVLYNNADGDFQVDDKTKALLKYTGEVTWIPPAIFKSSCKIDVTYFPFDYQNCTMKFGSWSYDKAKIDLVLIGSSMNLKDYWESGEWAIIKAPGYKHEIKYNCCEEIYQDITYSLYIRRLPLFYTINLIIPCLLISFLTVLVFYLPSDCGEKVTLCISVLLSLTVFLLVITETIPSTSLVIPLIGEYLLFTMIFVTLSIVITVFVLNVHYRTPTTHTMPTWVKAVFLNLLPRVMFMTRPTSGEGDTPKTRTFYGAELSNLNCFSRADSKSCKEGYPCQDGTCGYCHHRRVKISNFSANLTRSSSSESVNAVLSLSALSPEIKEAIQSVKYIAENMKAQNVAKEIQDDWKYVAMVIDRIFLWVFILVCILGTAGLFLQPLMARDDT
# Chain of Neuronal acetylcholine receptor; alpha3/beta2 (P12390 whole entry): as the sequence (P12390 whole entry) above
# Chain of Neuronal acetylcholine receptor; alpha3/beta4 (P04757 whole entry): as the sequence (P04757 whole entry) above
# Chain of Neuronal acetylcholine receptor; alpha3/beta4 (P12392 whole entry): as the sequence (P12392 whole entry) above
Compound,Ki [1],Ki [2],Ki [3],Ki [4],Ki [5],Ki [6],Ratio [7],Ratio [8],Ratio [9],Ki [10],Ratio [11]
Ic1cncc(O[C@H]2CCN2)c1,0.031 nM,0.14 nM,24 nM,0.42 nM,290 nM,0.062 nM,1520,2070,387,47 nM,690
c1cncc(OC[C@@H]2CCN2)c1,0.074 nM,,7.1 nM,0.24 nM,72 nM,0.14 nM,,,,17 nM,
Clc1ccc(C2CC3CCC2N3)cn1 (racemic; form 1) [EPIBATIDINE],,,,,,,,,,0.087 nM,
Clc1ccc(C2CC3CCC2N3)cn1 (racemic; form 2) [EPIBATIDINE],,,,,,,,,,0.13 nM,
CC(=O)OCC[N+](C)(C)C [ACETYLCHOLINE],11 nM,,,,,,,,,180 nM,
C[N+](C)(C)CCOC(N)=O [CARBACHOL],210 nM,,1300 nM,1100 nM,4800 nM,590 nM,,,,640 nM,
C[N+](C)(C)CCO [CHOLINE],18000 nM,42000 nM,34000 nM,37000 nM,48000 nM,37000 nM,1,1,1,21000 nM,1
O=c1cccc2n1C[C@@H]1CNC[C@H]2C1 [CYTISINICLINE],1.4 nM,2.5 nM,2.2 nM,37 nM,,1.5 nM,4,84,1,5.5 nM,6
C[N+]1(C)CCN(c2ccccc2)CC1 [DIMETHYLPHENYLPIPERAZINIUM IODIDE],28 nM,,,42 nM,800 nM,,,,,1300 nM,
CN1CCC[C@H]1c1cccnc1 [NICOTINE],,,,,,,,,,130 nM,

# Source: ChEMBL document CHEMBL1147509, “Pharmacology of the agonist binding sites of rat neuronal nicotinic receptor subtypes expressed in HEK 293 cells” (Bioorg Med Chem Lett, 2004)
